Earlier results on one molecule are cited in patent US7511157B2, “Hepatitis C inhibitor dipeptide analogs” (Boehringer Ingelheim International GmbH, priority 2004, dated 2009).

The data set has as its system hepatitis C virus. The conditions noted are these: two day clinical trial; Gastroenterology (2004) 127(5): 1347-1355.

Structures are written as SMILES.

On to `COc1ccc2c(O[C@@H]3C[C@H]4C(=O)N[C@]5(C(=O)O)C[C@H]5/C=C\CCCCC[C@H](NC(=O)OC5CCCC5)C(=O)N4C3)cc(-c3csc(NC(C)C)n3)nc2c1` [BILN 2061], for which the “reduction of viral loads in patients” value was “effective in rapidly reducing viral loads”.
